Source: article PMC2891776 (Journal of medicinal chemistry, 2010)

Assays:
[1] = target: T1, hASBT (Homo sapiens, UniProt Q12908); experiment: Inhibition of taurocholate uptake in hASBT-MDCK monolayers; type: cell-based; settings: for fold more potent than 33: ratio of Ki relative to 33
T1 sequence (Q12908 1-348): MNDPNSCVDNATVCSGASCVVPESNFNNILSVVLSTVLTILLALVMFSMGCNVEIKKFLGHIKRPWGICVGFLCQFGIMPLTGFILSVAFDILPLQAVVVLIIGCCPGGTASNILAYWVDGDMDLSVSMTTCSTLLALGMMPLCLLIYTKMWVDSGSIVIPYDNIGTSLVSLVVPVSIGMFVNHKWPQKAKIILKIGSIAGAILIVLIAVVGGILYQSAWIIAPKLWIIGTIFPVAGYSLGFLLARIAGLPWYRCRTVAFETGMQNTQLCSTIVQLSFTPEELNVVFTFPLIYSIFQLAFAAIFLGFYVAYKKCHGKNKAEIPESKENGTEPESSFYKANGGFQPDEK

[2] = target: T1, hASBT; settings: previously reported; cited from earlier work

Question: With CC(CCC(=O)NC(CCC(=O)Nc1cccc(C(=O)O)c1)C(=O)OOCc1ccccc1)C1CCC2C3C(O)CC4CC(O)CCC4(C)C3CCC12C (centres unmarked) [Compound 30] as the compound, how does the “hASBT inhibition potency” value ([1]; inhibition of taurocholate uptake) read?
Answer: potent inhibitor

Question: For C[C@H](CCC(=O)N[C@@H](CCC(=O)Nc1ccccc1C(=O)O)C(=O)O)[C@H]1CC[C@H]2[C@@H]3[C@H](O)C[C@H]4C[C@H](O)CC[C@]4(C)[C@H]3CC[C@]12C [Compound 31], which “fold more potent than 33” value [1] is on record?
Answer: over 2 fold

Question: Which results are given for C[C@H](CCC(=O)N[C@@H](CCC(=O)Nc1cccc(C(=O)O)c1)C(=O)O)[C@H]1CC[C@H]2[C@@H]3[C@H](O)C[C@H]4C[C@H](O)CC[C@]4(C)[C@H]3CC[C@]12C [Compound 32]?
Answer: Affinity (switch on or off) ([1]; observed affinity of dianions, molecular switch state): High (on); fold more potent than 33 [1]: over 2 fold

Question: For C[C@H](CCC(=O)N[C@@H](CCC(=O)O)C(=O)O)[C@H]1CC[C@H]2[C@@H]3[C@H](O)C[C@@H]4C[C@H](O)CC[C@]4(C)[C@H]3CC[C@]12C [glu-CDCA, Glutamic acid CDCA amide], which “hASBT activity” value [2] is on record?
Answer: poor activity
